{"source": "paper PMC7034394", "about": "(Journal of medicinal chemistry, 2019)", "key": {"slc26a3 (DRA)": {"molecular_target": "T1, slc26a3 (DRA) (Mus musculus, UniProt Q9WVC8)", "T1 sequence (Q9WVC8 1-757)": "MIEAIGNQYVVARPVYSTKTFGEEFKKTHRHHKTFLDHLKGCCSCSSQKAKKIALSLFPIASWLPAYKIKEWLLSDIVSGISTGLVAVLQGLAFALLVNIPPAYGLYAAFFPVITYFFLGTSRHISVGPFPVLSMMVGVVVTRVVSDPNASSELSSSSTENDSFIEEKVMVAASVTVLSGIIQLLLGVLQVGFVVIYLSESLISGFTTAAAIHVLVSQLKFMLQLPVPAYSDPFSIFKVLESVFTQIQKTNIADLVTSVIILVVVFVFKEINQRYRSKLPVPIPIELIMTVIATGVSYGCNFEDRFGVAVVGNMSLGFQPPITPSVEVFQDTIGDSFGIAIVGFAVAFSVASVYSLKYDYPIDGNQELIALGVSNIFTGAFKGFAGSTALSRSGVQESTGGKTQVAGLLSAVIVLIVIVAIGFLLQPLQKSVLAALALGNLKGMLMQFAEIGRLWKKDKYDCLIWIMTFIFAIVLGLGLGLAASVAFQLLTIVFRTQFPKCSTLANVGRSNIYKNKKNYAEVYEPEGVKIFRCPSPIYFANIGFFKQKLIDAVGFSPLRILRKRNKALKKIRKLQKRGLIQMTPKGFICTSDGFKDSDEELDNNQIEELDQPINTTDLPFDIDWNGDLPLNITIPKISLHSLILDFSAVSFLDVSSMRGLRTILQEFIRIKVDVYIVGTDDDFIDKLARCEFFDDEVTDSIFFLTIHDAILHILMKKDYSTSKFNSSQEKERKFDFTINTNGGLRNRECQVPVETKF", "assay_type": "cell-based, murine", "details": "for slc26a3 inhibition at 5 μM: 5 μM compound"}, "[1]": {"assay": "Pharmacokinetics in mice, serum concentration by LC/MS", "assay_type": "in vivo", "details": "for bioavailability: mouse, serum, po"}, "loperamide-treated mice [2]": {"system": "loperamide-treated mice", "details": "cited from earlier work"}, "slc26a4 (pendrin)": {"molecular_target": "T2, slc26a4 (pendrin) (Mus musculus, UniProt Q9R155)", "T2 sequence (Q9R155 1-780)": "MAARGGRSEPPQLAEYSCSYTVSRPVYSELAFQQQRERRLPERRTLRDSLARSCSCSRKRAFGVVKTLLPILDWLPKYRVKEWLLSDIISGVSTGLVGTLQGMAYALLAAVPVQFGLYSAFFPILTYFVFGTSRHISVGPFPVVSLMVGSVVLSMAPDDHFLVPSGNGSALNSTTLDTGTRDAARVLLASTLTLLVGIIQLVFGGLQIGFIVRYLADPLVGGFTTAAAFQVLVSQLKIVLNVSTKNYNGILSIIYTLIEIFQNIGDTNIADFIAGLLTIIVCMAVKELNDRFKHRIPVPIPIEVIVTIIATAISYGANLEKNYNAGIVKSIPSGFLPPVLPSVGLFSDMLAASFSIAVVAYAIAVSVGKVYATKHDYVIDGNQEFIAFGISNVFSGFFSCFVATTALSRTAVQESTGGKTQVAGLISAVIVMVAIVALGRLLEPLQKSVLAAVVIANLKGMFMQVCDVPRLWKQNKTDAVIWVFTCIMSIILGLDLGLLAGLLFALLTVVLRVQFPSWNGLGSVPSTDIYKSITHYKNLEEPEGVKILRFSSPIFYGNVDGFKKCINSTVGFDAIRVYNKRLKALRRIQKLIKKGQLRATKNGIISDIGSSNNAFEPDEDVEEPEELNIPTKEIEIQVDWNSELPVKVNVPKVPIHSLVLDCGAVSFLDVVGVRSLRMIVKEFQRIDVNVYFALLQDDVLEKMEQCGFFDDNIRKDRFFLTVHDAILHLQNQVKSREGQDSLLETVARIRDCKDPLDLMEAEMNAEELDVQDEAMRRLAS", "assay_type": "cell-based, murine", "details": "10 μM compound, 10 min preincubation"}, "slc26a6 (PAT-1)": {"molecular_target": "T3, slc26a6 (PAT-1) (Mus musculus, UniProt Q8CIW6)", "T3 sequence (Q8CIW6 1-758)": "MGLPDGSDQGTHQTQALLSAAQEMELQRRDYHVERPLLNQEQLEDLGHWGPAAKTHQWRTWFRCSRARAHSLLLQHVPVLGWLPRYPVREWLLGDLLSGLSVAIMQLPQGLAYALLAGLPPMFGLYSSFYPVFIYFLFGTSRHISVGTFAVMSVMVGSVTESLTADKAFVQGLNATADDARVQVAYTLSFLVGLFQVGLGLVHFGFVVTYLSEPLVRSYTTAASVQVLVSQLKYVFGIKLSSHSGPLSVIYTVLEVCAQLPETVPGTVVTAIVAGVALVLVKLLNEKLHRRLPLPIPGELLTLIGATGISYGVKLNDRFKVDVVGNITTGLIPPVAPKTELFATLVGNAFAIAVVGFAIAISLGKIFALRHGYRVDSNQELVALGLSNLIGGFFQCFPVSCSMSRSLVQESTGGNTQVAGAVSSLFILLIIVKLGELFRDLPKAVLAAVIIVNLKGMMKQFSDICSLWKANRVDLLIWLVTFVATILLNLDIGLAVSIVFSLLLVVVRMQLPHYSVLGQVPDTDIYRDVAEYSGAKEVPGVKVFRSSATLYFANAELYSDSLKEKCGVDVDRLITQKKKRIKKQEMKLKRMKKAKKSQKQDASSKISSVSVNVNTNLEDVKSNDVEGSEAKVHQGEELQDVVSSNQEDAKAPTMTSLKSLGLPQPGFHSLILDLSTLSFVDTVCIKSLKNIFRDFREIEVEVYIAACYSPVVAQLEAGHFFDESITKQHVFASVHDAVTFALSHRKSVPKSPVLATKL", "assay_type": "cell-based, murine", "details": "10 μM compound, 10 min preincubation"}, "SLC26A9": {"molecular_target": "T4, SLC26A9 (Homo sapiens, UniProt Q7LBE3)", "T4 sequence (Q7LBE3 1-791)": "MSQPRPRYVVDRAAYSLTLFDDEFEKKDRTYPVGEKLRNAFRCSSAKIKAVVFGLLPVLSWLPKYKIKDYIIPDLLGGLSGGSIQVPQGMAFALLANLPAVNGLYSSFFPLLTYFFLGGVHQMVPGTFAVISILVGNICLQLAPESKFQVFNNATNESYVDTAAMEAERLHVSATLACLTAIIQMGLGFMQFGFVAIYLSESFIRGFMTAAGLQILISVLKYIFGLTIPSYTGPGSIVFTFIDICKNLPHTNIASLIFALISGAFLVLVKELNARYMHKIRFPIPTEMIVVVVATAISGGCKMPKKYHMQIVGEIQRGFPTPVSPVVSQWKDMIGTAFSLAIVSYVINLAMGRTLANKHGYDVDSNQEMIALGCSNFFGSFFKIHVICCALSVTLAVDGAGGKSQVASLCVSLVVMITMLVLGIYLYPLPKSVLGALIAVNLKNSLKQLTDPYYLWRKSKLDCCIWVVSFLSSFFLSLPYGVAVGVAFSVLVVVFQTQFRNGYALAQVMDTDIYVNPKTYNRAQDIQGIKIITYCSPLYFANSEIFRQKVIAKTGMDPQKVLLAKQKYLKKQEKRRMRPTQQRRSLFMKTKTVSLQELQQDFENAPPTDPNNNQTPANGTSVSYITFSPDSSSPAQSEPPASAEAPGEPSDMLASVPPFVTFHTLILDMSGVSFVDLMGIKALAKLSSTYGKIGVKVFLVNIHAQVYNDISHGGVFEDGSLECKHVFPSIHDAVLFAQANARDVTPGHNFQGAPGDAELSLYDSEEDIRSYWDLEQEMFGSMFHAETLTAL", "assay_type": "cell-based", "details": "10 μM compound, 10 min preincubation"}, "loperamide-treated mice [3]": {"system": "loperamide-treated mice", "assay": "Loperamide-induced constipation model in mice", "assay_type": "in vivo", "details": "for Stool water content: 3 h stool"}}, "note": "Entries after “also recorded” stand apart in the source; their conditions may differ.", "data": [{"smiles": "Cc1c(CC(=O)O)c(=O)oc2c(C)c(OCCn3cccc3)ccc12", "note": "[4ap]", "values": [{"measurement": "slc26a3 inhibition at 5 μM", "setting": "slc26a3 (DRA)", "value": "inactive"}]}, {"smiles": "CCCOc1ccc2c(C)c(CC(=O)O)c(=O)oc2c1C", "note": "[4ad]", "values": [{"measurement": "slc26a3 inhibition at 5 μM", "setting": "slc26a3 (DRA)", "value": "no inhibition"}]}, {"smiles": "Cc1c(CC(N)=O)c(=O)oc2c(C)c(OCc3cccc(Br)c3)ccc12", "note": "[8ae]", "values": [{"measurement": "slc26a3 inhibition activity, in words", "setting": "slc26a3 (DRA)", "value": "much reduced inhibition"}]}, {"smiles": "Cc1cccc(S(=O)(=O)Oc2ccc3c(C)c(CC(=O)O)c(=O)oc3c2C)c1", "note": "[4aq]", "values": [{"measurement": "slc26a3 inhibition at 5 μM", "setting": "slc26a3 (DRA)", "value": "no inhibition"}]}, {"smiles": "Cc1c(CC(=O)O)c(=O)oc2c(C)c(OCc3cccc(Br)c3)ccc12", "note": "[4ba, 2-(7-((3-Bromobenzyl)oxy)-4,8-dimethyl-2-oxo-2H-chromen-3-yl)acetic Acid]", "values": [{"measurement": "bioavailability", "setting": "[1]; 5 mg/kg", "value": "54 ± 6.5", "unit": "%"}, {"measurement": "Efficacy in a mouse model of constipation", "setting": "loperamide-treated mice [2]", "value": "showed efficacy"}]}, {"smiles": "Cc1c(CC(=O)O)c(=O)oc2c(C)c(OS(=O)(=O)c3cccc(Cl)c3)ccc12", "note": "[4ar]", "values": [{"measurement": "slc26a3 inhibition at 5 μM", "setting": "slc26a3 (DRA)", "value": "no inhibition"}]}, {"smiles": "COc1ccc2ccc(=O)oc2c1", "note": "[S3]", "values": [{"measurement": "slc26a3 inhibition activity, in words", "setting": "slc26a3 (DRA)", "value": "inactive"}]}, {"smiles": "Cc1c(CC(=O)O)c(=O)oc2c(C)c(OCc3cccc(C(F)(F)F)c3)ccc12", "note": "[4be]", "values": [{"measurement": "Extent of inhibition of slc26a3-mediated anion exchange", "setting": "slc26a3 (DRA)", "value": "fully inhibited"}, {"measurement": "Inhibition of chloride/iodide exchange, slc26a4 (pendrin)", "setting": "slc26a4 (pendrin)", "value": "not significantly inhibited"}, {"measurement": "Inhibition of chloride/iodide exchange, slc26a6 (PAT-1)", "setting": "slc26a6 (PAT-1)", "value": "not significantly inhibited"}, {"measurement": "Inhibition of chloride/iodide exchange, SLC26A9", "setting": "SLC26A9", "value": "not significantly inhibited"}, {"measurement": "Serum level at 16 h", "setting": "[1]; mice, single dose 5 mg/kg oral or intraperitoneal, 16 h", "value": "little compound remaining"}, {"measurement": "bioavailability", "setting": "[1]; 5 mg/kg", "value": "16 ± 7", "unit": "%"}, {"measurement": "3 h stool weight, pellet number, and water content", "setting": "loperamide-treated mice [3]; loperamide-treated mice, 5 mg/kg oral 1 h before loperamide, 5 mg/kg", "value": "partially prevented constipation; also recorded: improved"}]}, {"smiles": "Cc1c(OCc2cccc(Br)c2)ccc2cc(C(=O)O)c(=O)oc12", "note": "[8aa]", "values": [{"measurement": "slc26a3 inhibition activity, in words", "setting": "slc26a3 (DRA)", "value": "inactive"}]}, {"smiles": "C=CCOc1ccc2c(C)c(CC(=O)O)c(=O)oc2c1C", "note": "[4aa]", "values": [{"measurement": "slc26a3 inhibition at 5 μM", "setting": "slc26a3 (DRA)", "value": "no inhibition"}]}, {"smiles": "Cc1c(CC(=O)O)c(=O)oc2c(C)c(OCc3cccc(I)c3)ccc12", "note": "[4az]", "values": [{"measurement": "Extent of inhibition of slc26a3-mediated anion exchange", "setting": "slc26a3 (DRA)", "value": "fully inhibited"}, {"measurement": "Inhibition of chloride/iodide exchange, slc26a4 (pendrin)", "setting": "slc26a4 (pendrin)", "value": "not significantly inhibited"}, {"measurement": "Inhibition of chloride/iodide exchange, slc26a6 (PAT-1)", "setting": "slc26a6 (PAT-1)", "value": "not significantly inhibited"}, {"measurement": "Inhibition of chloride/iodide exchange, SLC26A9", "setting": "SLC26A9", "value": "not significantly inhibited"}, {"measurement": "Duration of predicted therapeutic concentrations in serum", "setting": "[1]; mice, single 10 mg/kg dose, oral (b1), oral or intraperitoneal", "value": "> 72", "unit": "h"}, {"measurement": "bioavailability", "setting": "[1]; 10 mg/kg", "value": "39 ± 4", "unit": "%"}, {"measurement": "Effect on stool parameters compared to vehicle", "setting": "loperamide-treated mice [3]; control mice not treated with loperamide", "value": "no significant effect"}, {"measurement": "Stool water content", "setting": "loperamide-treated mice [3]; loperamide-treated mice, 3 mg/kg oral", "value": "fully normalized"}, {"measurement": "Stool water content", "setting": "loperamide-treated mice [3]; loperamide-treated mice, 10 mg/kg oral", "value": "fully normalized"}]}, {"smiles": "Cc1c(CC(=O)O)c(=O)oc2c(C)c(OCCc3cccc(C(F)(F)F)c3)ccc12", "note": "[4as]", "values": [{"measurement": "slc26a3 inhibition at 5 μM", "setting": "slc26a3 (DRA)", "value": "no inhibition"}]}]}
